According to publication PMC8092876, “A Leucyl-tRNA Synthetase Inhibitor with Broad-Spectrum Antimycobacterial Activity” (Antimicrobial Agents and Chemotherapy, 2021):
Values after ≈ are worked out from the molar mass of the structure shown. Where two headings read alike, the source gives them in different places.

Columns and labels:
[1] = test system: M. tuberculosis H37Rv ATCC 27294; assay: MIC assay in 96-well plate format; format: cell-based; settings: Mycobacterium tuberculosis, 168 h
M. avium 11 = assay: MIC assay in 96-well plate format; format: cell-based, M. avium subsp. hominissuis; settings: Mycobacterium avium, 96 h; M. avium 11, 7H9, 4 days; read-out: MIC
[2] = test system: M. abscessus subsp. abscessus M404; assay: MIC assay in 96-well plate format; format: cell-based; settings: Mycobacteroides abscessus; M. abscessus subsp. abscessus M404, clinical isolate
[3] = test system: M. abscessus subsp. massiliense M111; assay: MIC assay in 96-well plate format; format: cell-based; settings: Mycobacteroides abscessus; M. abscessus subsp. massiliense M111, clinical isolate
[4] = test system: M. abscessus Bamboo biofilms; assay: Biofilm growth inhibition assay (biofilm MIC and MBC); format: cell-based, M. abscessus subsp. abscessus; settings: Mycobacteroides abscessus
Procedure: The biofilm growth inhibition assay was performed as previously described ([40]). Innovotech MBEC 96-well biofilm assay plates (Innovotech 19111, Edmonton, AB, Canada) were used, and the supplier’s manual was followed with minor modifications. Mid-log-phase M. abscessus Bamboo precultures (OD600 = 0.4 to 0.6) were spun down at 3200 × g for 10 min at 25°C and washed with 7H9 medium without Tween 80 (7H9nt). Bacteria were resuspended into 25 ml 7H9nt to an OD600 of 0.0125 (1.0 × 10^6 CFU/ml). […] The lids with the pegs were transferred to a new MBEC multititer plate containing 150 μl of fresh 7H9nt medium per well without bacteria (0 h time point). After that, the pegs with growing biofilm were transferred once a day to a new multititer plate containing fresh 7H9nt medium. To measure growth of the biofilm formed on the peg, the pegs were washed in 200 μl of 7H9nt medium before they were aseptically removed and placed in 1.7 ml microcentrifuge tubes (VWR 87003-294, Rador, PA, United States) containing 500 μl PBS/Tween 80. The microcentrifuge tubes were vigorously vortexed at 2,000 rpm for 90 s at 25°C to detach the bacteria from the pegs before samples were serially diluted and plated for the determination of CFU/peg. […] The average drug-free biofilm growth was calculated by subtracting the average 24 h CFU/peg value from the average 72 h CFU/peg value for the untreated control pegs. The biofilm MIC was defined as the lowest drug concentration that reduced the CFU/peg by 90% relative to that of the average drug-free biofilm growth.

[5] = test system: M. abscessus Bamboo RM3 (LeuS V417M); assay: microbe, parasite or virus in culture; format: cell-based; settings: RM3, batch 1, LeuS V417M
[6] = Mouse pharmacokinetics, intravenous administration; format: in vivo
Procedure: (§1) For pharmacokinetic studies, CD-1 male mice (22 to 25 g) were used for intravenous route and C57BL/6 female mice (18 to 20 g) were used for oral route. All animal studies were ethically reviewed and carried out in accordance with European Directive 2010/63/EU and the GSK policy on the care, welfare, and treatment of animals.
(§2) EC/11770 was administered by intravenous route at 1 mg/kg single dose in saline and by oral gavage at 1 mg/kg and 10 mg/kg single doses in 1% methyl cellulose (1% MC). Aliquots of 20 μl of blood were taken from the lateral tail vein by puncture from each mouse (n = 3 per route and dose) at 5, 15, and 30 min 1, 2, 4, 6, 8, and 24 h postdose for intravenous route and at 15, 30, and 45 min 1, 2, 4, 6, 8, and 24 h postdose for oral route. The blood aliquots were mixed with 40 μl of water and stored at −80°C prior to analysis. The samples were processed by protein precipitation: aliquots of 20 μl were mixed with acetonitrile/methanol (80:20 vol/vol) and then filtered in 0.45 μm well-plates (hydrophobic polytetrafluorethylene [PTFE], Millipore). The filtrates were analyzed by UPLC-MS/MS for the establishment of compound concentration. The ultraperformance liquid chromatography (UPLC)-MS/MS system included a UPLC Acquity (Waters) and an API4000 mass spec. (AB Sciex). A volume of 7.5 μl of sample was injected into the system, with an UPLC solvent gradient of 2 min and with a positive multiple reaction monitoring (MRM) mass detection mode.
(§3) Pharmacokinetic analysis was performed by noncompartmental data analysis (NCA) with Phoenix WinNonlin 6.3 (Pharsight, Certara L.P), and supplementary analysis was performed with GraphPad Prism 6 (GraphPad Software, Inc.).

[7] = Mouse pharmacokinetics, oral administration; format: in vivo; settings: for AUC: female, C57BL/6, whole blood
Procedure: as §1, §2, §3

[8] = test system: M. abscessus subsp. abscessus K21; assay: M. abscessus mouse infection model; format: in vivo; settings: NOD SCID mice, intranasal infection, 10 mg/kg orally once daily for 10 days, day 11
Procedure: In vivo efficacy determinations were carried out as described previously, using 8-week-old female NOD.CB17-Prkdc^scid/NCrCrl (NOD SCID) mice (Charles River Laboratories) and the M. abscessus subsp. abscessus K21 strain ([38]). Briefly, anesthetized animals were infected by intranasal delivery of ∼10^6 CFU of M. abscessus subsp. abscessus K21. Acute infection was achieved within 1 day. Drugs or the vehicle control were administered to NOD SCID mice once daily for 10 consecutive days by oral gavage, starting from 1 day postinfection. Clarithromycin was formulated in 0.4% methyl cellulose-sterile water and administered at a dose of 250 mg/kg. EC/11770 was formulated in 0.4% methyl cellulose-sterile water and administered at 10 mg/kg. All mice were euthanized 24 h after the last dose (11 days postinfection), and their lungs and spleen were aseptically removed prior to homogenization. The bacterial load in these organs was determined by plating serial dilutions of the organ homogenates onto Middlebrook 7H11 agar (BD Difco) supplemented with 0.2% (vol/vol) glycerol and 10% (vol/vol) oleic acid-albumin-dextrose-catalase (OADC). The agar plates were incubated for 5 days at 37°C prior to counting of colonies. […]

[9] = mouse, oral 10 mg/kg, average (SD)

Structure (SMILES): CC(C)(O)COc1ccc(Br)c2c1B(O)O[C@@H]2CN [EC/11770]
- MIC [1]: 0.56 µM (≈ 0.185 µg/mL)
- MIC (M. avium 11): 4 µM (≈ 1.32 µg/mL)
- MIC [2]: 0.52 µM (≈ 0.172 µg/mL)
- MIC [3]: 0.95 µM (≈ 0.313 µg/mL)
- MBC ([4]; 10-fold CFU/peg reduction vs 24 h): 50 µM (≈ 16.5 µg/mL)
- MIC ([4]; 48 h with drug, 90% reduction of CFU/peg growth): 3.1 µM (≈ 1.02 µg/mL)
- MIC ([5]; Mycobacteroides abscessus): 60 to 75 µM (≈ 19.8 to 24.7 µg/mL)
- MIC [5]: 62 µM (≈ 20.5 µg/mL)
- half-life ([6]; male, CD-1, whole blood, mouse, intravenous 1 mg/kg, average (SD)): 5.3 h
- Vd ([6]; male, CD-1, whole blood, mouse, intravenous 1 mg/kg, average (SD), read-out: Vss): 2.4 L/kg
- AUC(0-inf) ([6]; male, CD-1, mouse, intravenous 1 mg/kg, whole blood, average (SD)): 3340 ng·h/mL
- in vivo clearance as share of liver blood flow in mice ([6]; mouse, intravenous 1 mg/kg, liver blood flow 90 to 126 ml/min/kg): approximately 5%
- clearance ([6]; whole blood, mouse (CD-1 male), intravenous 1 mg/kg in saline, average (SD), read-out: In vivo CL): 5 mL/min/kg
- AUC ([7]; mouse, oral 1 mg/kg, average (SD), read-out: AUC0–24_1 mg/kg): 3560 ng·h/mL
- AUC ([7]; mouse, oral 10 mg/kg, average (SD), read-out: AUC0–24_10 mg/kg): 40500 ng·h/mL
- Cmax_1 mg/kg ([7]; mouse (C57BL/6 female), oral 1 mg/kg, average (SD)): 341 (51) ng/ml
- %F_1 mg/kg ([7]; mouse, oral 1 mg/kg): 100%
- DNAUC0–24_1 mg/kg ([7]; mouse, oral 1 mg/kg, average (SD)): 3,556 (179) ng h/ml per mg/kg
- Tmax_1 mg/kg ([7]; mouse, oral 1 mg/kg, range of values): 1.0−2.0 h
- %F_10 mg/kg ([7]; mouse, oral 10 mg/kg): 100%
- time above M. abscessus biofilm MIC ([7]; mouse, oral 10 mg/kg): approximately 60%
- time above MIC in M. abscessus planktonic cultures ([7]; mouse, oral 10 mg/kg): 100%
- Cmax_10 mg/kg [7, 9]: 4,393 (1,260) ng/ml
- DNAUC0–24_10 mg/kg [7, 9]: 4,053 (908) ng h/ml per mg/kg
- Tmax_10 mg/kg ([7]; mouse, oral 10 mg/kg, range of values): 0.75−2.0 h
- reduction in lung CFU [8]: 1.5 log
